Measured values published in patent US20250346585A1 (Alexion Pharmaceuticals, Inc., priority 2022, published 2025).

Biological target: Human complement C1s enzyme (Homo sapiens (Human), UniProt P09871)
Assay: Human C1s enzyme assay
Type: biochemical
Conditions: Human C1s enzyme assay of Example 3; read-out: IC50 (Stars)
Experimental: Human complement C1s enzyme (purified from human serum, Complement Technology, Inc.) at 1.16 nM final concentration was incubated with test compound at various concentrations for 5 min at room temperature in 50 mM Tris, 1 M NaCl, pH 7.5. A synthetic substrate Z-L-Lys-SBzl and DTNB (Ellman's reagent) were added to final concentrations of 100 μM each. Absorbance at 405 nm (A405) was recorded at 30 second intervals for 30 min using a microplate spectrophotometer. IC50 values were calculated by nonlinear regression of complement C1s reaction rates as a function of test compound concentration.

Human complement C1s enzyme, sequence (P09871 438-688 limits assumed): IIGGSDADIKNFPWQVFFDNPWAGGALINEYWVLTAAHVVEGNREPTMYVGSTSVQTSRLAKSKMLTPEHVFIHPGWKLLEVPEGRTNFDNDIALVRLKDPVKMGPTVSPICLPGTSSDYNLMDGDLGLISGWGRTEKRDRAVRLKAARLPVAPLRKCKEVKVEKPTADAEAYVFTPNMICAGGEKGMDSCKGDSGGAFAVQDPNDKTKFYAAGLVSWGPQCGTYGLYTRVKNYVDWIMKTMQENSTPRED
Human complement C1s enzyme, sequence (P09871 16-437 partner limits assumed): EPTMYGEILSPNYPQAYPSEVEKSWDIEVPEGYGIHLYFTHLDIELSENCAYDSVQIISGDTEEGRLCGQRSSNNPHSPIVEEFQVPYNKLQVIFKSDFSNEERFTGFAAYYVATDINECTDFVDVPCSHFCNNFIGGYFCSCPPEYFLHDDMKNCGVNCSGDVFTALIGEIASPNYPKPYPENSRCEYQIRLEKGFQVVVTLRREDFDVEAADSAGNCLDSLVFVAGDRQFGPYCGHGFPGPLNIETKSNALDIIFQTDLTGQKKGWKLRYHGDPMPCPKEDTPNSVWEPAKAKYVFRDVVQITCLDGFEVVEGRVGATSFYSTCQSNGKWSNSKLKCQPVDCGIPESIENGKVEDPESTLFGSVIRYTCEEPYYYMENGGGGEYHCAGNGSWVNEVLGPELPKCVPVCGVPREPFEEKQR

Row | Structure (SMILES) | IC50
1 | C[C@@H](NC(=O)[C@@H]1C[C@@H](Oc2ccccc2)CN1C(=O)CNC(=O)c1ccc(Oc2ccc(F)cc2)cc1)c1cc(C(=N)N)cs1 [Compound 37, (2S,4R)—N—((R)-1-(4-carbamimidoylthiophen-2-yl)ethyl)-1-((4-(4-fluorophenoxy)benzoyl)glycyl)-4-phenoxypyrrolidine-2-carboxamide] | < 100 nM
2 | COC[C@@]12C[C@@H]1N(C(=O)CNC(=O)c1ccc(Oc3ccc(F)cc3)cc1)[C@H](C(=O)N[C@H](C)c1ccc(C(=N)N)s1)C2 [Compound 38, (1S,3S,5R)—N—((R)-1-(5-carbamimidoylthiophen-2-yl)ethyl)-2-((4-(4-fluorophenoxy)benzoyl)glycyl)-5-(methoxymethyl)-2-azabicyclo[3.1.0]-hexane-3-carboxamide] | < 100 nM
3 | CCc1ccc(Oc2ccc(C(=O)NCC(=O)N3C[C@H](OC(F)F)C[C@H]3C(=O)N[C@H](C)c3cc(C(=N)N)cs3)cc2)cc1 [Compound 39, (2S,4R)—N—((R)-1-(4-carbamimidoylthiophen-2-yl)ethyl)-4-(difluoromethoxy)-1-((4-(4-ethylphenoxy)benzoyl)glycyl)pyrrolidine-2-carboxamide] | < 100 nM
4 | C[C@@H](NC(=O)[C@@H]1C[C@]2(CO)C[C@@H]2N1C(=O)CNC(=O)c1ccc(Oc2ccc(F)cc2)cc1)c1ccc(C(=N)N)s1 [Compound 41, (1S,3S,5R)—N—((R)-1-(5-carbamimidoylthiophen-2-yl)ethyl)-2-((4-(4-fluorophenoxy)benzoyl)glycyl)-5-(hydroxymethyl)-2-azabicyclo[3.1.0]hexane-3-carboxamide] | < 100 nM
5 | C[C@@H](NC(=O)[C@@H]1C[C@]2(CO)C[C@@H]2N1C(=O)CNC(=O)c1ccc(Oc2ccc(F)cc2)cc1)c1cc(C(=N)N)cs1 [Compound 42, (1S,3S,5R)—N—((R)-1-(4-carbamimidoylthiophen-2-yl)ethyl)-2-((4-(4-fluorophenoxy)benzoyl)glycyl)-5-(hydroxymethyl)-2-azabicyclo[3.1.0]hexane-3-carboxamide] | < 100 nM
6 | C[C@@H](NC(=O)[C@@H]1C[C@@H](OC(F)F)CN1C(=O)CNC(=O)c1ccc(Oc2ccc(Cl)cc2)cc1)c1cc(C(=N)N)cs1 [Compound 43, (2S,4R)—N—((R)-1-(4-carbamimidoylthiophen-2-yl)ethyl)-1-((4-(4-chlorophenoxy)benzoyl)glycyl)-4-(difluoromethoxy)pyrrolidine-2-carboxamide] | < 100 nM
7 | COC[C@@]12C[C@@H]1N(C(=O)CNC(=O)c1ccc(Oc3ccc(F)cc3)cc1)[C@H](C(=O)N[C@H](C)c1cc(C(=N)N)cs1)C2 [Compound 44, (1S,3S,5R)—N—((R)-1-(4-carbamimidoylthiophen-2-yl)ethyl)-2-((4-(4-fluorophenoxy)benzoyl)glycyl)-5-(methoxymethyl)-2-azabicyclo[3.1.0]hexane-3-carboxamide] | < 100 nM
8 | C[C@H]1C[C@@H](C(=O)N[C@H](C)c2cc(C(=N)N)cs2)N(C(=O)CNC(=O)c2ccc(Oc3ccc(F)cc3)cc2)C1 [Compound 45, (2S,4S)—N—((R)-1-(4-carbamimidoylthiophen-2-yl)ethyl)-1-((4-(4-fluorophenoxy)benzoyl)glycyl)-4-methylpyrrolidine-2-carboxamide] | < 100 nM
9 | CC(C)c1ccc(Oc2ccc(C(=O)NCC(=O)N3C[C@H](OC(F)F)C[C@H]3C(=O)N[C@H](C)c3cc(C(=N)N)cs3)cc2)cc1 [Compound 47, (2S,4R)—N—((R)-1-(4-carbamimidoylthiophen-2-yl)ethyl)-4-(difluoromethoxy)-1-((4-(4-isopropylphenoxy)benzoyl)glycyl)pyrrolidine-2-carboxamide] | < 100 nM
10 | C[C@@H](NC(=O)[C@@H]1C[C@@H](OC(F)F)CN1C(=O)CNC(=O)c1ccc(Oc2ccc(C#N)cc2)cc1)c1cc(C(=N)N)cs1 [Compound 49, (2S,4R)—N—((R)-1-(4-carbamimidoylthiophen-2-yl)ethyl)-1-((4-(4-cyanophenoxy)benzoyl)glycyl)-4-(difluoromethoxy)pyrrolidine-2-carboxamide] | < 100 nM
11 | C[C@@H](NC(=O)[C@@H]1C[C@@H](S(C)(=O)=O)CN1C(=O)CNC(=O)c1ccc(Oc2ccc(F)cc2)cc1)c1cc(C(=N)N)cs1 [Compound 54, (2S,4R)—N—((R)-1-(4-carbamimidoylthiophen-2-yl)ethyl)-1-((4-(4-fluorophenoxy)benzoyl)glycyl)-4-(methylsulfonyl)pyrrolidine-2-carboxamide] | < 100 nM
12 | C[C@@H](NC(=O)[C@@H]1C[C@@H](OC(F)F)CN1C(=O)CNC(=O)c1ccc(Oc2ccc(F)cc2)cc1)c1ccc(C(=N)N)s1 [Compound 57, (2S,4R)—N—((R)-1-(5-carbamimidoylthiophen-2-yl)ethyl)-4-(difluoromethoxy)-1-((4-(4-fluorophenoxy)benzoyl)glycyl)pyrrolidine-2-carboxamide] | < 100 nM
13 | Cc1ccccc1[C@H]1C[C@@H](C(=O)N[C@H](C)c2cc(C(=N)N)cs2)N(C(=O)CNC(=O)c2ccc(Oc3ccc(F)cc3)cc2)C1 [Compound 59, (2S,4R)—N—((R)-1-(4-carbamimidoylthiophen-2-yl)ethyl)-1-((4-(4-fluorophenoxy)benzoyl)glycyl)-4-(o-tolyl)pyrrolidine-2-carboxamide] | < 100 nM

Now from value to molecule:

Row | IC50 | Structure (SMILES)
14 | < 100 nM | COC[C@@]1(F)C[C@@H](C(=O)N[C@H](C)c2cc(C(=N)N)cs2)N(C(=O)CNC(=O)c2ccc(Oc3ccccc3)c(C)c2)C1 [Compound 34, (2S,4R)—N—((R)-1-(4-carbamimidoylthiophen-2-yl)ethyl)-4-fluoro-4-(methoxymethyl)-1-((3-methyl-4-phenoxybenzoyl)glycyl)pyrrolidine-2-carboxamide]
15 | < 100 nM | C[C@@H](NC(=O)[C@@H]1C[C@](F)(CN)CN1C(=O)CNC(=O)c1ccc2c(c1)-c1ccccc1C2(F)F)c1cc(C(=N)N)cs1 [Compound 35, (2S,4S)-4-(aminomethyl)-N—((R)-1-(4-carbamimidoylthiophen-2-yl)ethyl)-1-((9,9-difluoro-9H-fluorene-3-carbonyl)glycyl)-4-fluoropyrrolidine-2-carboxamide]
16 | < 100 nM | C[C@@H](NC(=O)[C@@H]1C[C@](F)(CN(C)C)CN1C(=O)CNC(=O)c1ccc2c(c1)-c1ccccc1C2(F)F)c1cc(C(=N)N)cs1 [Compound 36, (2S,4S)—N—((R)-1-(4-carbamimidoylthiophen-2-yl)ethyl)-1-((9,9-difluoro-9H-fluorene-3-carbonyl)glycyl)-4-((dimethylamino)methyl)-4-fluoropyrrolidine-2-carboxamide]
17 | < 100 nM | C[C@@H](NC(=O)[C@@H]1C[C@](F)(CF)CN1C(=O)CNC(=O)c1ccc(Oc2ccc(F)cc2)cc1)c1ccc(C(=N)N)s1 [Compound 40, (2S,4R)—N—((R)-1-(5-carbamimidoylthiophen-2-yl)ethyl)-4-fluoro-4-(fluoromethyl)-1-((4-(4-fluorophenoxy)benzoyl)glycyl)pyrrolidine-2-carboxamide]
18 | < 100 nM | C[C@H]1C[C@@H](C(=O)N[C@H](C)c2cc(C(=N)N)cs2)N(C(=O)CNC(=O)c2ccc3c(c2)-c2ccccc2C3(F)F)C1 [Compound 46, (2S,4S)—N—((R)-1-(4-carbamimidoylthiophen-2-yl)ethyl)-1-((9,9-difluoro-9H-fluorene-3-carbonyl)glycyl)-4-methylpyrrolidine-2-carboxamide]
19 | < 100 nM | N=C(N)c1csc(CNC(=O)[C@@H]2CC3(CN2C(=O)CNC(=O)c2ccc(-c4ccccc4)cn2)OCCO3)c1 [Compound 48, (S)—N-((4-carbamimidoylthiophen-2-yl)methyl)-7-((5-phenylpicolinoyl)glycyl)-1,4-dioxa-7-azaspiro[4.4]nonane-8-carboxamide]
20 | < 100 nM | N=C(N)c1csc(CNC(=O)[C@@H]2C[C@@H](OC(F)F)CN2C(=O)CNC(=O)c2ccc3c(c2)-c2ccccc2C3(F)F)c1 [Compound 50, (2S,4R)—N-((4-carbamimidoylthiophen-2-yl)methyl)-1-((9,9-difluoro-9H-fluorene-3-carbonyl)glycyl)-4-(difluoromethoxy)pyrrolidine-2-carboxamide]
21 | < 100 nM | N=C(N)c1csc(CNC(=O)[C@@H]2C[C@](F)(CF)CN2C(=O)CNC(=O)c2ccc3c(c2)-c2ccccc2C3(F)F)c1 [Compound 52, (2S,4R)—N-((4-carbamimidoylthiophen-2-yl)methyl)-1-((9,9-difluoro-9H-fluorene-3-carbonyl)glycyl)-4-fluoro-4-(fluoromethyl)pyrrolidine-2-carboxamide]
22 | < 100 nM | C[C@@H](NC(=O)[C@@H]1C[C@]2(CO)C[C@@H]2N1C(=O)CNC(=O)c1ccc2c(c1)-c1ccccc1C2(F)F)c1cc(C(=N)N)cs1 [Compound 53, (1S,3S,5R)—N—((R)-1-(4-carbamimidoylthiophen-2-yl)ethyl)-2-((9,9-difluoro-9H-fluorene-3-carbonyl)glycyl)-5-(hydroxymethyl)-2-azabicyclo [3.1.0]hexane-3-carboxamide]
23 | < 100 nM | N=C(N)c1csc(CNC(=O)[C@@H]2CC3(CN2C(=O)CNC(=O)c2ccc4c(c2)-c2ccccc2C4(F)F)OCCO3)c1 [Compound 55, (S)—N-((4-carbamimidoylthiophen-2-yl)methyl)-7-((9,9-difluoro-9H-fluorene-3-carbonyl)glycyl)-1,4-dioxa-7-azaspiro[4.4]nonane-8-carboxamide]
24 | < 100 nM | C[C@@H](NC(=O)[C@@H]1CC2(CN1C(=O)CNC(=O)c1ccc3c(c1)-c1ccccc1C3(F)F)OCCO2)c1ccc(C(=N)N)s1 [Compound 56]
25 | < 100 nM | COC[C@@]1(F)C[C@@H](C(=O)NCc2cc(C(=N)N)cs2)N(C(=O)CNC(=O)c2ccc3c(c2)-c2ccccc2C3(F)F)C1 [Compound 58, (2S,4R)—N-((4-carbamimidoylthiophen-2-yl)methyl)-1-((9,9-difluoro-9H-fluorene-3-carbonyl)glycyl)-4-fluoro-4-(methoxymethyl)pyrrolidine-2-carboxamide]
